Laboratory results published in patent US20220125765A1, “PHARMACEUTICAL COMBINATIONS COMPRISING MEBENDAZOLE AND A STRONG OR MODERATE CYP1A2 INHIBITOR” (ZEPHAPHARM LTD, priority 2019, published 2022).

Tests used:
[1] = Stability in human liver microsomes without and with cimetidine or furafylline (Example 4); assay type: in vitro ADME; conditions: for half-life at 1 μM / microsomal CLint at 1 μM: human, liver microsomes; for half-life at 1 μM / microsomal CLint at 1 μM / CLint: substrate 1 μM
Experimental: A minus cofactor control incubation was included for each compound tested where 0.1 M phosphate buffer pH 7.4 was added instead of NADPH (minus NADPH). […] The samples were analysed for mebendazole or phenacetin using LC-MS/MS.
A minus cofactor control incubation was included for each compound tested where 0.1 M phosphate buffer pH 7.4 was added instead of cofactor (minus NADPH). […] The samples were analysed for mebendazole or phenacetin using LC-MS/MS.

[2] = Stability in human cryopreserved hepatocytes without and with cimetidine or furafylline (Example 5); assay type: in vitro ADME; conditions: human, substrate 1 μM, read-out: t1/2
Experimental: (§1) The final incubation volume was 500 μL. Two control compounds were included with each species, alongside appropriate vehicle control.
(§2) The samples were analysed for mebendazole or ethoxycoumarin using LC-MS/MS.
(§3) The final incubation volume was 500 μL.
(§4) A positive control compound, ethoxycoumarin, for CYP1A2 was included. […] The samples were analysed for mebendazole or ethoxycoumarin using LC-MS/MS.

[3] = Stability in human cryopreserved hepatocytes without and with cimetidine or thiabendazole (Example 6); conditions: human, substrate 1 μM; for half-life at 1 μM: t½
[4] = test system: human cryopreserved hepatocytes; assay: Stability in human cryopreserved hepatocytes without and with cimetidine or furafylline (Example 5); assay type: in vitro ADME; conditions: human hepatocytes, largest effect over concentrations tested
Experimental: as §1, §2, §3, §4

[5] = pH 7.4, with cimetidine 30 μM, plus 30 μM cimetidine
[6] = pH 7.4, with cimetidine 100 μM, plus 100 μM cimetidine
[7] = pH 7.4, with cimetidine 300 μM, plus 300 μM cimetidine
[8] = cryopreserved hepatocytes (suspension), no inhibitor
[9] = cryopreserved hepatocytes, with cimetidine 30 μM, cimetidine 30 μM
[10] = cryopreserved hepatocytes, with cimetidine 100 μM, cimetidine 100 μM
[11] = cryopreserved hepatocytes, with cimetidine 300 μM, cimetidine 300 μM

CCOc1ccc(NC(C)=O)cc1 [Phenacetin]
half-life at 1 μM [1, 5]: 65.3 min | microsomal CLint at 1 μM [1, 5]: 21.2 µL/min/mg | half-life at 1 μM [1, 6]: 78.9 min | microsomal CLint at 1 μM [1, 6]: 17.6 µL/min/mg | half-life at 1 μM [1, 7]: 99.6 min | microsomal CLint at 1 μM [1, 7]: 13.9 µL/min/mg | microsomal CLint at 1 μM ([1]; pH 7.4, with furafylline 3 μM, plus 3 μM furafylline): 3 to 49 µL/min/mg | microsomal CLint at 1 μM ([1]; pH 7.4, with furafylline 10 μM, plus 10 μM furafylline): 2 to 58 µL/min/mg | microsomal CLint at 1 μM ([1]; pH 7.4, with furafylline 30 μM, plus 30 μM furafylline): 2.71 µL/min/mg | half-life at 1 μM ([1]; pH 7.4, no inhibitor): 61.9 min | microsomal CLint at 1 μM ([1]; pH 7.4, no inhibitor): 22.4 µL/min/mg | CLint ([1]; plus 3 μM furafylline): 3.49 μL/min/mg protein | CLint ([1]; plus 10 μM furafylline): 2.58 μL/min/mg protein | half-life at 1 μM [2, 8]: 12.9 min | half-life at 1 μM [2, 9]: 13.4 min | half-life at 1 μM [2, 10]: 15.7 min | half-life at 1 μM [2, 11]: 18.8 min | half-life at 1 μM ([2]; cryopreserved hepatocytes, with furafylline 3 μM, furafylline 3 μM): 59.6 min | half-life at 1 μM ([2]; cryopreserved hepatocytes, with furafylline 10 μM, furafylline 10 μM): 89.3 min | half-life at 1 μM ([2]; cryopreserved hepatocytes, with furafylline 30 μM, furafylline 30 μM): 110 min

CCOc1ccc2ccc(=O)oc2c1
hepatocyte CLint at 1 µM [3, 8]: 105 µL/min/1e6 cells | half-life at 1 μM [3, 8]: 13.2 min | hepatocyte CLint at 1 µM ([3]; cryopreserved hepatocytes (suspension), with cimetidine 30 µM, cimetidine 30 μM): 99.9 µL/min/1e6 cells | hepatocyte CLint at 1 µM ([3]; cryopreserved hepatocytes (suspension), with cimetidine 100 µM, cimetidine 100 μM): 88.8 µL/min/1e6 cells | hepatocyte CLint at 1 µM ([3]; cryopreserved hepatocytes (suspension), with cimetidine 300 µM, cimetidine 300 μM): 59.8 µL/min/1e6 cells | hepatocyte CLint at 1 µM ([3]; cryopreserved hepatocytes (suspension), with thiabendazole 10 µM, thiabendazole 10 μM): 8.65 µL/min/1e6 cells | hepatocyte CLint at 1 µM ([3]; cryopreserved hepatocytes (suspension), with thiabendazole 30 µM, thiabendazole 30 μM): 5.35 µL/min/1e6 cells | hepatocyte CLint at 1 µM ([3]; cryopreserved hepatocytes (suspension), with thiabendazole 100 µM, thiabendazole 100 μM): 4.05 µL/min/1e6 cells | half-life at 1 μM [3, 9]: 13.9 min | half-life at 1 μM [3, 10]: 15.6 min | half-life at 1 μM [3, 11]: 23.2 min | half-life at 1 μM ([3]; cryopreserved hepatocytes, with thiabendazole 10 μM, thiabendazole 10 μM): 160 min | half-life at 1 μM ([3]; cryopreserved hepatocytes, with thiabendazole 30 μM, thiabendazole 30 μM): 259 min | half-life at 1 μM ([3]; cryopreserved hepatocytes, with thiabendazole 100 μM, thiabendazole 100 μM): 343 min

Cc1nc2c([nH]1)c(=O)n(C)c(=O)n2Cc1ccco1 [Furafylline]
inhibition of intrinsic clearance of mebendazole ([1]; human liver microsomes, largest effect over concentrations tested): 99% | decrease of mebendazole metabolism in presence of the inhibitor [4]: 9.1 fold | inhibition of intrinsic clearance of mebendazole [4]: 89%
